Tested on: gut microbiota
Test: Gut microbiome analysis (16S rRNA sequencing of fecal samples) in STAM model of NASH
Assay type: in vivo, C57BL/6J mice
Source text: The study is reported in accordance with Animal Research: Reporting of In Vivo Experiments (ARRIVE) guidelines. C57BL/6J mice were obtained from Japan SLC, Inc. (Japan). All animals used in this study were cared for under the following guidelines: Act on Welfare and Management of Animals (Ministry of the Environment, Japan, Act No. 105 of Oct. 1, 1973), standards relating to the care and management of laboratory animals and relief of pain (Notice No. 88 of the Ministry of the Environment, Japan, Apr. 28, 2006) and the guidelines for proper conduct of animal experiments (Science Council of Japan, Jun. 1, 2006). Protocol approvals were obtained from SMC Laboratories, Japan's IACUC (Study reference no: […] Mice were maintained in a specific pathogen-free (SPF) facility under controlled conditions of temperature (23±3° C.), humidity (50±20%), lighting (12-hour artificial light and dark cycles; light from 8:00 to 20:00) and air exchange. The STAM model of NASH was induced as previously described [D10]. Mice were given a single subcutaneous injection of 200 μg streptozotocin (STZ, Sigma-Aldrich, USA) solution 2 days after birth and fed with a high-fat diet (HFD, 57 kcal % fat, Cat #HFD32, CLEA Japan, Inc., Japan) from 4-9 weeks of age. All mice develop liver steatosis and diabetes and at […] mice had established steatohepatitis, histologically. Studygroups: There were five study groups, described below. Eight mice were included in each study group. Eight NASH mice were orally administered vehicle supplemented with AFO-202 Beta Glucan at a dose of 1 mg/kg in a volume of 5 mL/kg once daily from 6 to 9 weeks of age. Eight NASH mice were orally administered vehicle supplemented with Telmisartan at a dose of 10 mg/kg once daily from 6 to 9 weeks of age. Frequency: Fecal samples were collected at the 6 weeks of age (before administration) and 9 weeks of age (before sacrifice). Procedure: At 6 weeks of age, fecal samples were collected from each mouse by clean catch method. […] A sterile petri dish was placed on the bench. Gently massage the abdomen, position the bottom of mouse over a fresh petri dish, and collect 1-2 fecal pellets. At sacrifice, fecal samples were aseptically collected from cecum. The tubes with feces were placed on ice immediately. These tubes were snap frozen in liquid nitrogen and stored at -80° C. for shipping. In this analysis, the 16S rRNA sequence data acquired by the next-generation sequencer from the fecal […] was used to perform community analysis using the QIIME2 program for microbial community analysis. The raw read data in FASTQ format output from the next-generation sequencer was trimmed to remove adapter sequences and low QV regions that may be included in the data. Cutadapt was used to remove adapter sequences from DNA sequencing reads. Trimmomatic was used as read trimming tool for Illumina NGS data. The adapter sequence was trimmed using the adapter trimming program “cutadapt” if the Trimming of the region at the end of the read sequence overlapped the corresponding sequence by at least one base (mismatch tolerance: 20%). When reads containing N were present in at least one of Read1 and Read2, both Read1 and Read2 were removed. Trimming of low QV regions was performed on the read data after processing using the QV trimming program “Trimmomatic” under the following conditions. The window of 20 bases is slid from the 5' side, and the area where the average QV is less than 20 is trimmed. After trimming, only the reads with more than 50 bases remaining in both Read1 and Read2 were taken as output. The microbial community analysis based on 16S rRNA sequence was performed on the sequence data trimmed in the previous section using the microbial community analysis program “QIIME2”. The annotation program “sklearn” included in QIIME2 is used to annotate the ASV (OTU) sequences. […]

CCCc1nc2c(C)cc(-c3nc4ccccc4n3C)cc2n1Cc1ccc(-c2ccccc2C(=O)O)cc1 [Telmisartan]
Abundance: Family Erysipelotrichaceae, Genus —, Species — (post-intervention, table row r426): 0
Abundance: Family Deferribacteraceae, Genus Mucispirillum, Species schaedleri (post-intervention, table row r427): 0
Abundance: Family Methylobacteriaceae, Genus Methylobacterium, Species Other (post-intervention, table row r428): 0
Abundance: Family Methanobacteriaceae, Genus Methanobrevibacter, Species — (post-intervention, table row r429): 0
Abundance: Family Lachnospiraceae, Genus Other, Species Other (post-intervention, table row r431): 0
Abundance: Family Lachnospiraceae, Genus Dorea, Species — (post-intervention, table row r432): 0
Abundance: Family Lachnospiraceae, Genus Dorea, Species — (post-intervention, table row r433): 0
Abundance: Family Lachnospiraceae, Genus —, Species — (post-intervention, table row r434): 0
Abundance: Family Erysipelotrichaceae, Genus —, Species — (post-intervention, table row r435): 0
Abundance: Family Other, Genus Other, Species Other (post-intervention, table row r437): 0
Abundance: Family Ruminococcaceae, Genus Ruminococcus, Species — (post-intervention, table row r438): 11
Abundance: Family Lachnospiraceae, Genus Other, Species Other (post-intervention, table row r439): 0
Abundance: Family Erysipelotrichaceae, Genus Clostridum, Species cocleatum (post-intervention, table row r440): 0
Abundance: Family Clostridiaceae, Genus —, Species — (post-intervention, table row r441): 0
Abundance: Family S24-7, Genus —, Species — (post-intervention, table row r442): 0
Abundance: Family Ruminococcaceae, Genus Oscillospira, Species — (post-intervention, table row r443): 10
Abundance: Family Erysipelotrichaceae, Genus —, Species — (post-intervention, table row r446): 9
Abundance: Family Streptococcaceae, Genus —, Species — (post-intervention, table row r447): 0
Abundance: Family Erysipelotrichaceae, Genus —, Species — (post-intervention, table row r448): 0
Abundance: Family Turicibacteraceae, Genus Turicibacter, Species — (post-intervention, table row r449): 0
Abundance: Family S24-7, Genus —, Species — (post-intervention, table row r450): 0
Abundance: Family Ruminococcaceae, Genus Oscillospira, Species — (post-intervention, table row r451): 0
Abundance: Family Lachnospiraceae, Genus —, Species — (post-intervention, table row r452): 0
Abundance: Family Erysipelotrichaceae, Genus —, Species — (post-intervention, table row r454): 0
Abundance: Family Ruminococcaceae, Genus Ruminococcus, Species — (post-intervention, table row r455): 7
Abundance: Family Moraxellaceae, Genus Psychrobacter, Species Other (post-intervention, table row r456): 0
Abundance: Family Paenibacillaceae, Genus Other, Species Other (post-intervention, table row r457): 0
Abundance: Family Lachnospiraceae, Genus Coprococcus, Species — (post-intervention, table row r458): 0
Abundance: Family Bacillaceae, Genus Bacillus, Species — (post-intervention, table row r459): 0
Abundance: Family Enterococcaceae, Genus Vagococcus, Species — (post-intervention, table row r460): 0
Abundance: Family Lachnospiraceae, Genus —, Species — (post-intervention, table row r462): 0
Abundance: Family Ruminococcaceae, Genus Oscillospira, Species — (post-intervention, table row r466): 0
Abundance: Family Erysipelotrichaceae, Genus —, Species — (post-intervention, table row r468): 0
Abundance: Family Other, Genus Other, Species Other (post-intervention, table row r469): 4
Abundance: Family Clostridiaceae, Genus Clostridium, Species Other (post-intervention, table row r470): 0
Abundance: Family Ruminococcaceae, Genus —, Species — (post-intervention, table row r473): 0
Abundance: Family Deferribacteraceae, Genus Mucispirillum, Species schaedleri (post-intervention, table row r474): 0
Abundance: Family Turicibacteraceae, Genus Turicibacter, Species — (post-intervention, table row r475): 0
Abundance: Family [Mogibacteriaceae], Genus —, Species — (post-intervention, table row r478): 0
Abundance: Family Lachnospiraceae, Genus Dorea, Species longicateria (post-intervention, table row r480): 0
Abundance: Family Ruminococcaceae, Genus —, Species — (post-intervention, table row r481): 0
Abundance: Family Lachnospiraceae, Genus —, Species — (post-intervention, table row r482): 0
Abundance Erysipelotrichaceae/Allobaculum/— (post, line r8): 622
Abundance Turicibacteraceae/Turicibacter/— (post, line r9): 786
Abundance Desulfovibrionaceae/—/— (post, line r10): 6012
Abundance Clostridiaceae/Other/Other (post, line r11): 723
Abundance Lactobacillaceae/Lactobacillus/— (post, line r12): 254
Abundance Streptococcaceae/Lactococeus/— (post, line r13): 1948
Abundance Bacteroidaceae/Bacteroides/— (post, line r14): 8412
Abundance [Paraprevotellaceae]/[Prevotella]/— (post, line r15): 7582
Abundance —/—/— (post, line r16): 6029
Abundance Deferribacteraceae/Mucispirillum/schaedleri (post, line r17): 1921
Abundance Bacteroidaceae/Bacteroides/acidifaciens (post, line r18): 2571
Abundance —/—/— (post, line r19): 2764
Abundance Verrucomicrobiaceae/Akkermansia/muciniphila (post, line r20): 320
Abundance Enterobacteriaceae/Other/Other (post, line r22): 40
Abundance Lactobacillaceae/Lactobacillus/— (post, line r23): 513
Abundance S24-7/—/— (post, line r24): 411
Abundance Lachnospiraceae/—/— (post, line r25): 1545
Abundance Peptostreptocpccaceae/—/— (post, line r26): 181
Abundance Lachnospiraceae/[Ruminococcus]/gnavus (post, line r27): 898
Abundance Lachnospiraceae/Coprococeus/— (post, line r28): 1468
Abundance Bifidobacteriaceae/Bifidobacterium/pseudolongum (post, line r29): 111
Abundance Enterobacteriaceae/Proteus/— (post, line r30): 1153
Abundance Lactobacillaceae/Lactobacillus/Other (post, line r31): 111
Abundance S24-7/—/— (post, line r32): 329
Abundance Porphyromonadaceae/Parabacteroides/distasonis (post, line r33): 1437
Abundance Clostridiaceae/—/— (post, line r34): 79
Abundance —/—/— (post, line r35): 536
Abundance Desulfovibrionaceae/Desulfovibrio/— (post, line r36): 503
Abundance S24-7/—/— (post, line r37): 271
Abundance Coriobacteriaceae/Adlercreutzia/— (post, line r38): 135
Abundance S24-7/—/— (post, line r39): 527
Abundance Erysipelotrichaceae/Clostridium/cocleatum (post, line r40): 696
Abundance Ruminococcaceae/Ruminococcus/— (post, line r41): 266
Abundance Lachnospiraceae/Other/Other (post, line r43): 436
Abundance Lachnospiraceae/[Ruminococcus]/gnavus (post, line r44): 87
Abundance Turicibacteraceae/Turicibacter/— (post, line r45): 0
Abundance Lachnospiraceae/—/— (post, line r46): 253
Abundance Bacteroidaceae/Bacteroides/— (post, line r47): 2042
Abundance Ruminococcaceae/Oscillospira/— (post, line r48): 621
Abundance Clostridiaceae/Other/Other (post, line r49): 70
Abundance Lachnospiraceae/Roseburia/— (post, line r50): 927
Abundance Lachnospiraceae/—/— (post, line r51): 698
Abundance S24-7/—/— (post, line r52): 104
Abundance Lachnospiraceae/[Ruminococcus]/gnavus (post, line r53): 126
Abundance Lachnospiraceae/Coprococcus/— (post, line r56): 562
Abundance S24-7/—/— (post, line r57): 144
Abundance S24-7/—/— (post, line r58): 410
Abundance Lachnospiraceae/Other/Other (post, line r60): 245
Abundance Lachnospiraceae/[Ruminococcus]/gnavus (post, line r61): 686
Abundance Erysipelotrichaceae/Allobaculum/— (post, line r62): 0
Abundance Desulfovibrionaceae/Desulfovibrio/C21_c20 (post, line r63): 43
Abundance S24-7/—/— (post, line r64): 152
Abundance Streptococcaceae/Lactococcus/garvieae (post, line r66): 8
Abundance Enterobacteriaceae/Proteus/— (post, line r68): 386
Abundance Lachnospiraceae/—/— (post, line r69): 786
Abundance S24-7/—/— (post, line r70): 74
Abundance Lachnospiraceae/[Ruminococcus]/gnavus (post, line r71): 331
Abundance Clostridiaceae/Clostridium/Other (post, line r73): 0
Abundance Lachnospiraceae/—/— (post, line r74): 15
Abundance Clostridiaceae/Other/Other (post, line r75): 49
Abundance S24-7/—/— (post, line r78): 101
